Experimental data: patent US7880010B2, “Crystalline forms of a dimethylphenyl compound” (Theravance, Inc., priority 2006, dated 2011)

Legend:
Experiment in all cases: Radioligand binding assay for muscarinic receptors ([3H]-NMS displacement)
[1] = target: T1, hM2 muscarinic receptor (Homo sapiens, UniProt P08172); settings: M2 muscarinic receptor subtype, CHO cell membranes, [3H]-NMS 1 nM
T1 construct: expressed in transfected cells; host or cells: CHO / CHO-K1
T1 sequence (P08172 1-466): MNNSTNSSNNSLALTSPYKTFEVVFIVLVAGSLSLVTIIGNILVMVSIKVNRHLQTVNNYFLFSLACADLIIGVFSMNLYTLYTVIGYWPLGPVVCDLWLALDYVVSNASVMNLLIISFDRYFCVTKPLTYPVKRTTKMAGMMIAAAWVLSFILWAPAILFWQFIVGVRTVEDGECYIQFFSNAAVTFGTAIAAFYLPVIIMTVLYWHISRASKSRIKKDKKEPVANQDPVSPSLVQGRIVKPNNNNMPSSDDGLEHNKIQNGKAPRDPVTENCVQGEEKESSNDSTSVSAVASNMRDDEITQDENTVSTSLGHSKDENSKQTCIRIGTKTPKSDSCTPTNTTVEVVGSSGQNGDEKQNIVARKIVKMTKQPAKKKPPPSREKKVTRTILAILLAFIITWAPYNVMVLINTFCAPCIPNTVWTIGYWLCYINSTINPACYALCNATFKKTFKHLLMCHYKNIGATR
Protocol: (§1) CHO cell lines stably expressing cloned human hM1, hM2, hM3 and hM4 muscarinic receptor subtypes, respectively, were grown to near confluency in Hams F-12 media supplemented with 10% FBS and 250 μg/mL Geneticin. The cells were grown in a 5% CO2, 37° C. incubator and lifted with 2 mM EDTA in dPBS. Cells were collected by 5 minute centrifugation at 650×g, and cell pellets were either stored frozen at −80° C. or membranes were prepared immediately for use. For membrane preparation, cell pellets were resuspended in lysis buffer and homogenized with a Polytron PT-2100 tissue disrupter (Kinematica AG; 20 seconds×2 bursts). Crude membranes were centrifuged at 40,000×g for 15 minutes at 4° C. The membrane pellet was then resuspended with re-suspension buffer and homogenized again with the Polytron tissue disrupter. The protein concentration of the membrane suspension was determined by the method described in Lowry et al., 1951, Journal of Biochemistry, 193, 265. All membranes were stored frozen in aliquots at −80° C. or used immediately. Aliquots of prepared hM5 receptor membranes were purchased directly from PerkinElmer, Inc. (Wellesley, Mass.) and stored at −80° C. until use.
(§2) Radioligand binding assays for cloned muscarinic receptors were performed in 96-well microtiter plates in a total assay volume of 100 μL. CHO cell membranes stably expressing either the hM1, hM2, hM3, hM4 or hM5 muscarinic subtype were diluted in assay buffer to the following specific target protein concentrations (μg/well): 10 μg for hM1, 10-15 μg for hM2, 10-20 μg for hM3, 10-20 μg for hM4, and 10-12 μg for hM5 to get similar signals (cpm). The membranes were briefly homogenized using a Polytron tissue disrupter (10 seconds) prior to assay plate addition. Saturation binding studies for determining KD values of the radioligand were performed using L-[N-methyl-^3H]scopolamine methyl chloride ([^3H]-NMS) (TRK666, 84.0 Ci/mmol, Amersham Pharmacia Biotech, Buckinghamshire, England) at concentrations ranging from 0.001 nM to 20 nM. Displacement assays for determination of Ki values of test compounds were performed with [^3H]-NMS at 1 nM and eleven different test compound concentrations. The test compounds were initially dissolved to a concentration of 400 μM in dilution buffer and then serially diluted 5× with dilution buffer to final concentrations ranging from 10 pM to 100 μM. The addition order and volumes to the assay plates were as follows: 25 μL radioligand, 25 μL diluted test compound, and 50 μL membranes. Assay plates were incubated for 60 minutes at 37° C. Binding reactions were terminated by rapid filtration over GF/B glass fiber filter plates (PerkinElmer, Inc.) pre-treated in 1% BSA. Filter plates were rinsed three times with wash buffer (10 mM HEPES) to remove unbound radioactivity. The plates were then air-dried and 50 μL Microscint-20 liquid scintillation fluid (PerkinElmer, Inc.) were added to each well. The plates were then counted in a PerkinElmer Topcount liquid scintillation counter (PerkinElmer, Inc.). Binding data were analyzed by nonlinear regression analysis with the GraphPad Prism Software package (GraphPad Software, Inc., San Diego, Calif.) using the one-site competition model. Ki values for test compounds were calculated from observed IC50 values and the KD value of the radioligand using the Cheng-Prusoff equation (Cheng Y; Prusoff W H. (1973) Biochemical Pharmacology, 22(23):3099-108). […]

[2] = target: T2, hM5 muscarinic receptor (Homo sapiens, UniProt P08912); settings: M5 muscarinic receptor subtype, CHO cell membranes, [3H]-NMS 1 nM
T2 construct: purchased PerkinElmer, Inc. (Wellesley, Mass.); host or cells: CHO cell membranes
T2 sequence (P08912 1-532): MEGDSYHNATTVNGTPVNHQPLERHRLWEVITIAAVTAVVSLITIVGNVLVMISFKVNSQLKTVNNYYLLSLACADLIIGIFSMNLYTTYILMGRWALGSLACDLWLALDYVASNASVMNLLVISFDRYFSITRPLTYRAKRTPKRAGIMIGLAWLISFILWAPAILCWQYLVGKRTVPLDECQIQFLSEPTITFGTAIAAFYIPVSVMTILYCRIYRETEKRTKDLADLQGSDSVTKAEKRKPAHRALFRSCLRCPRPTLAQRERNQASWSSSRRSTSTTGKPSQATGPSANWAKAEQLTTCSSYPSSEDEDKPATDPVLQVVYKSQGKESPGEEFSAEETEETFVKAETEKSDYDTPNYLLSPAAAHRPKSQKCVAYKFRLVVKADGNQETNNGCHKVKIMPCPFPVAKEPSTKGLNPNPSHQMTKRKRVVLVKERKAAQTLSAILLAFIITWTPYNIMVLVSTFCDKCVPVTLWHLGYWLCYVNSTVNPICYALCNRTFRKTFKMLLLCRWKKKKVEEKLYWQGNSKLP
Protocol: as §1, §2

[3] = target: T3, hM3 muscarinic receptor (Homo sapiens, UniProt P20309); settings: M3 muscarinic receptor subtype, CHO cell membranes, [3H]-NMS 1 nM
T3 construct: expressed in transfected cells; host or cells: CHO
Protocol: as §1, §2

Measured: Ki

T3 sequence (P20309 whole entry): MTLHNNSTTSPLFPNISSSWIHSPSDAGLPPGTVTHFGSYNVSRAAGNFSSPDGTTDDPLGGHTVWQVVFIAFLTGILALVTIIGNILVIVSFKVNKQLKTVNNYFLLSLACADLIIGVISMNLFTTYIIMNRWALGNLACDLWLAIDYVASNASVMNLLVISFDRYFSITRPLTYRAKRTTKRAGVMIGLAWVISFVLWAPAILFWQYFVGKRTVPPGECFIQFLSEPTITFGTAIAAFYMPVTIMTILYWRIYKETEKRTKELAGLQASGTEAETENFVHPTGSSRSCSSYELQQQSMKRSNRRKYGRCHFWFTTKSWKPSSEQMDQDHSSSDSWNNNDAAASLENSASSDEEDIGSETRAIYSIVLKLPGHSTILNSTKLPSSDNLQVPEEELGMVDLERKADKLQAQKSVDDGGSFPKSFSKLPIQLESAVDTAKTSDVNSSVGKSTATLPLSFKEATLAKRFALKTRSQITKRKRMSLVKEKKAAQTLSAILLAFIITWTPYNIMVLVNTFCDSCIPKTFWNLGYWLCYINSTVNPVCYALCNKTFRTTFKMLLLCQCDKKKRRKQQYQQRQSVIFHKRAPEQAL

Cc1cc(NC(=O)CCN2CCC(OC(=O)Nc3ccccc3-c3ccccc3)CC2)c(C)cc1CNC[C@H](O)c1ccc(O)c(NC=O)c1 [compound of formula I, biphenyl-2-ylcarbamic acid 1-[2-(4-{[(R)-2-(3-formylamino-4-hydroxyphenyl)-2-hydroxyethylamino]methyl}-2,5-dimethylphenylcarbamoyl)ethyl]-piperidin-4-yl ester]
< 10 nM: all assays above
